Laboratory results reported in US11453681B2, “Substituted eneoxindoles and uses thereof” (Gilead Sciences, Inc., priority 2019, dated 2022).

Biological target: human HPK1 (MAP4K1) (Homo sapiens (Human), UniProt Q92918)
Test: HPK1 IC50 Assay
Assay type: biochemical
Conditions: recombinant HPK1 kinase domain 0.15 nM, synthetic peptide substrate STK S1, 3 hours at 25° C., time-resolved fluorescence energy transfer; geometric mean of multiple experiments
Experimental: The enzymatic activity of human HPK1 (MAP4K1) was monitored in a biochemical assay in the presence or absence of compounds and using a synthetic peptide substrate. An increase in phosphorylation of the peptide by HPK1 was indicative of its kinase activity.
Recombinant HPK1 kinase domain produced via baculovirus infection of insect cells was obtained from Proteros (Proteros Biostructures #PR-0322) and was pre-activated in the presence of 2 mM ATP (Sigma-Aldrich, cat #GE27-2056-01) and 2 mM magnesium chloride for 16 hours at 4° C. The protein reaction mixture was then loaded to a desalting column (Thermo Fisher Scientific, Cat #89889) to remove excess ATP. HPK1 was eluted with buffer containing 20 mM Tris (2-Amino-2-(hydroxymethyl)propane-1,3-diol) pH 8.0, 150 mM NaCl, 2 mM dithiothreitol and 5% glycerol, and was frozen at −80° C. for later use. HPK1 dual phosphorylation was confirmed by mass spectrometry.
Ten nanoliters of test compounds dissolved in DMSO at various concentrations were dispensed into a 384-well ProxiPlate (PerkinElmer #6008289). Five microliters of a solution of recombinant HPK1 diluted in HPK1 kinase assay buffer (50 mM BES [N,N-Bis(2-hydroxyethyl)-2-aminoethanesulfonic acid], pH 7.0; 10 mM magnesium chloride; 0.01% Triton X-100; 1 mM dithiothreitol; 0.01% bovine serum albumin; 0.1 mM sodium orthovanadate) was added to the compound-containing plate and was incubated for 15 minutes at 25° C. Five microliters of a mixture of ATP (Sigma-Aldrich #A6559) and peptide substrate STK Si (Cisbio #61ST1BLC) diluted in HPK1 kinase assay buffer was then added to start the reaction. Final concentrations were 0.15 nM for HPK1, […], and 1 […]. The reaction mixture was incubated at 25° C. for 3 hours and was stopped with the addition of 10 μl of an EDTA (Ethylenediaminetetraacetic acid)-containing detection buffer (Cisbio #62SDBRDF) supplemented with Europium cryptate-labeled anti-phospho-serine/threonine antibodies (Cisbio #62ST1PEJ) and XL665-labeled streptavidin (Cisbio #610SAXLG). The mixture was incubated for 16 hours at room temperature and peptide phosphorylation was measured by time-resolved fluorescence energy transfer (665 nm/620 nm) on an Envision plate reader (PerkinElmer).
Data in Table 1 were normalized based on positive (staurosporine) and negative (DMSO) controls. Least squares curve fittings were performed using a four-parameter variable slope nonlinear regression model. IC50 is defined as the concentration of compound required to inhibit 50% of maximum phosphorylation. IC50 values from multiple experiments were averaged by geometric mean and the standard deviation was calculated.

human HPK1 (MAP4K1), sequence (Q92918 17-274): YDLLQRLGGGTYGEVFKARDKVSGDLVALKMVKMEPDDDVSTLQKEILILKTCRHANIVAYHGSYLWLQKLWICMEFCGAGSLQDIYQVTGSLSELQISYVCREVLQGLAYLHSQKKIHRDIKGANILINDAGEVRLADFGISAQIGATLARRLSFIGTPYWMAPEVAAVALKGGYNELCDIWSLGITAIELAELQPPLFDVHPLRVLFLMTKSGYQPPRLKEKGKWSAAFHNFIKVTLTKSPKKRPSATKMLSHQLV

Row | SMILES | IC50
1 | CCN(CC)CCNC(=O)c1c(C)[nH]c(/C=C2\C(=O)Nc3cc(F)c(-c4cnc5c(c4C)NCCO5)cc32)c1C [Compound C1, (Z)—N-(2-(diethylamino)ethyl)-5-((6-fluoro-5-(8-methyl-2,3-dihydro-1H-pyrido[2,3-b][1,4]oxazin-7-yl)-2-oxoindolin-3-ylidene)methyl)-2,4-dimethyl-1H-pyrrole-3-carboxamide] | 0.05 nM
2 | Cc1ncc(/C=C2\C(=O)Nc3ccc(-c4ccc5c(c4C)NCCO5)cc32)[nH]1 [Compound C2, (Z)-3-((2-methyl-1H-imidazol-5-yl)methylene)-5-(5-methyl-3,4-dihydro-2H-benzo[b][1,4]oxazin-6-yl)indolin-2-one] | 1.95 nM
3 | Cc1ncc(/C=C2\C(=O)Nc3cc(C)c(-c4cnc5c(c4C)NCCO5)cc32)[nH]1 [Compound C3, (Z)-6-methyl-3-((2-methyl-1H-imidazol-5-yl)methylene)-5-(8-methyl-2,3-dihydro-1H-pyrido[2,3-b][1,4]oxazin-7-yl)indolin-2-one] | 0.19 nM
4 | Cc1ncc(/C=C2\C(=O)Nc3c(F)cc(-c4cnc5c(c4C)NCCO5)c(C)c32)[nH]1 [Compound C4, (Z)-7-fluoro-4-methyl-3-((2-methyl-1H-imidazol-5-yl)methylene)-5-(8-methyl-2,3-dihydro-1H-pyrido[2,3-b][1,4]oxazin-7-yl)indolin-2-one] | 0.15 nM
5 | Cc1ncc(/C=C2\C(=O)Nc3c(F)cc(-c4cnc5c(c4)NCCO5)c(C)c32)[nH]1 [Compound C5, (Z)-5-(2,3-dihydro-H-pyrido[2,3-b][1,4]oxazin-7-yl)-7-fluoro-4-methyl-3-((2-methyl-TH-imidazol-5-yl)methylene)indolin-2-one] | 7.43 nM
6 | CCc1nc(C)c(/C=C2\C(=O)Nc3ccc(-c4cnc5c(c4C)NCCO5)cc32)[nH]1 [Compound C6, (Z)-3-((2-ethyl-4-methyl-1H-imidazol-5-yl)methylene)-5-(8-methyl-2,3-dihydro-1H-pyrido[2,3-b][1,4]oxazin-7-yl)indolin-2-one] | 0.12 nM
7 | Cc1ncc(/C=C2\C(=O)Nc3cc(Cl)c(-c4cnc5c(c4C)NCCO5)cc32)[nH]1 [Compound C7, (Z)-6-chloro-3-((2-methyl-1H-imidazol-5-yl)methylene)-5-(8-methyl-2,3-dihydro-1H-pyrido[2,3-b][1,4]oxazin-7-yl)indolin-2-one] | 0.29 nM
8 | Cc1ncc(/C=C2\C(=O)Nc3cc(F)c(-c4cnc5c(c4C)NCCO5)cc32)[nH]1 [Compound C8, (Z)-6-fluoro-3-((2-methyl-H-imidazol-5-yl)methylene)-5-(8-methyl-2,3-dihydro-1H-pyrido[2,3-b][1,4]oxazin-7-yl)indolin-2-one] | 0.18 nM
9 | CCN(CC)CCNC(=O)c1c(C)[nH]c(/C=C2\C(=O)Nc3c(F)cc(-c4cnc5c(c4C)NCCO5)cc32)c1C [Compound C9, (Z)—N-(2-(diethylamino)ethyl)-5-((7-fluoro-5-(8-methyl-2,3-dihydro-1H-pyrido[2,3-b][1,4]oxazin-7-yl)-2-oxoindolin-3-ylidene)methyl)-2,4-dimethyl-1H-pyrrole-3-carboxamide] | 0.09 nM
10 | Cc1ncc(/C=C2\C(=O)Nc3c(F)cc(-c4cnc5c(c4C)NCCO5)cc32)[nH]1 [Compound C10, (Z)-7-fluoro-3-((2-methyl-1H-imidazol-5-yl)methylene)-5-(8-methyl-2,3-dihydro-1H-pyrido[2,3-b][1,4]oxazin-7-yl)indolin-2-one] | 0.22 nM
11 | C/C(=C1/C(=O)Nc2ccc(-c3cnc4c(c3C)NCCO4)cc21)c1cnc[nH]1 [Compound C11, (Z)-3-(1-(1H-imidazol-5-yl)ethylidene)-5-(8-methyl-2,3-dihydro-1H-pyrido[2,3-b][1,4]oxazin-7-yl)indolin-2-one] | 0.44 nM
12 | Cc1c(-c2cc(F)c3c(c2C)/C(=C/c2cc(C#N)c[nH]2)C(=O)N3)cnc2c1NCCO2 [Compound C12, (Z)-5-((7-fluoro-4-methyl-5-(8-methyl-2,3-dihydro-1H-pyrido[2,3-b][1,4]oxazin-7-yl)-2-oxoindolin-3-ylidene)methyl)-1H-pyrrole-3-carbonitrile] | 0.67 nM
13 | Cc1c[nH]c(/C=C2\C(=O)Nc3c(F)cc(-c4cnc5c(c4C)NCCO5)c(C)c32)c1 [Compound C13, (Z)-7-fluoro-4-methyl-3-((4-methyl-H-pyrrol-2-yl)methylene)-5-(8-methyl-2,3-dihydro-1H-pyrido[2,3-b][1,4]oxazin-7-yl)indolin-2-one] | 0.51 nM

Next, values leading:

Row | IC50 | SMILES
14 | 1.88 nM | Cc1c(-c2ccc3c(c2)C(=Cc2cccs2)C(=O)N3)cnc2c1NCCO2 (racemic) [Compound C19, (E and Z)-5-(8-methyl-2,3-dihydro-1H-pyrido[2,3-b][1,4]oxazin-7-yl)-3-(thiophen-2-ylmethylene)indolin-2-one]
15 | 0.29 nM | Cc1c(-c2cc(F)c3c(c2C)/C(=C/c2ccc[nH]2)C(=O)N3)cnc2c1NCCO2 [Compound C14, (Z)-3-((1H-pyrrol-2-yl)methylene)-7-fluoro-4-methyl-5-(8-methyl-2,3-dihydro-1H-pyrido[2,3-b][1,4]oxazin-7-yl)indolin-2-one]
16 | 0.07 nM | Cc1ncc(/C=C2\C(=O)Nc3ccc(-c4cnc5c(c4C)NCCO5)cc32)[nH]1 [Compound C15, (Z)-3-((2-methyl-H-imidazol-5-yl)methylene)-5-(8-methyl-2,3-dihydro-1H-pyrido[2,3-b][1,4]oxazin-7-yl)indolin-2-one]
17 | 0.05 nM | CCN(CC)CCNC(=O)c1c(C)[nH]c(/C=C2\C(=O)Nc3ccc(-c4cnc5c(c4C)NCCO5)cc32)c1C [Compound C16, (Z)—N-(2-(diethylamino)ethyl)-2,4-dimethyl-5-((5-(8-methyl-2,3-dihydro-1H-pyrido[2,3-b][1,4]oxazin-7-yl)-2-oxoindolin-3-ylidene)methyl)-1H-pyrrole-3-carboxamide]
18 | 0.05 nM | Cc1ccc(/C=C2\C(=O)Nc3ccc(-c4cnc5c(c4C)NCCO5)cc32)[nH]1 [Compound C17, (Z)-3-((5-methyl-H-pyrrol-2-yl)methylene)-5-(8-methyl-2,3-dihydro-1H-pyrido[2,3-b][1,4]oxazin-7-yl)indolin-2-one]
19 | 3.02 nM | Cc1c(-c2ccc3c(c2)/C(=C/c2ccns2)C(=O)N3)cnc2c1NCCO2 [Compound C18, (Z)-3-(isothiazol-5-ylmethylene)-5-(8-methyl-2,3-dihydro-1H-pyrido[2,3-b][1,4]oxazin-7-yl)indolin-2-one]
20 | 0.16 nM | Cc1c(-c2ccc3c(c2)/C(=C/c2cc(Br)c[nH]2)C(=O)N3)cnc2c1NCCO2 [Compound C20, (Z)-3-((4-bromo-1H-pyrrol-2-yl)methylene)-5-(8-methyl-2,3-dihydro-1H-pyrido[2,3-b][1,4]oxazin-7-yl)indolin-2-one]
21 | 0.07 nM | Cc1c(-c2ccc3c(c2)/C(=C/c2cc(C#N)c[nH]2)C(=O)N3)cnc2c1NCCO2 [Compound C21, (Z)-5-((5-(8-methyl-2,3-dihydro-1H-pyrido[2,3-b][1,4]oxazin-7-yl)-2-oxoindolin-3-ylidene)methyl)-1H-pyrrole-3-carbonitrile]
22 | 2.61 nM | Cc1c[nH]c(/C=C2\C(=O)Nc3c(Cl)cc(-c4cnc5c(c4C)NCCO5)cc32)c1 [Compound C22, (Z)-7-chloro-3-((4-methyl-1H-pyrrol-2-yl)methylene)-5-(8-methyl-2,3-dihydro-1H-pyrido[2,3-b][1,4]oxazin-7-yl)indolin-2-one]
23 | 1.98 nM | Cc1c(-c2cc(Cl)c3c(c2)/C(=C/c2ccc[nH]2)C(=O)N3)cnc2c1NCCO2 [Compound C23, (Z)-3-((1H-pyrrol-2-yl)methylene)-7-chloro-5-(8-methyl-2,3-dihydro-1H-pyrido[2,3-b][1,4]oxazin-7-yl)indolin-2-one]
24 | 2.93 nM | Cc1c[nH]c(/C=C2\C(=O)Nc3c(C)cc(-c4cnc5c(c4C)NCCO5)cc32)c1 [Compound C24, (Z)-7-methyl-3-((4-methyl-1H-pyrrol-2-yl)methylene)-5-(8-methyl-2,3-dihydro-1H-pyrido[2,3-b][1,4]oxazin-7-yl)indolin-2-one]
25 | 0.05 nM | Cc1c[nH]c(/C=C2\C(=O)Nc3c(F)cc(-c4cnc5c(c4C)NCCO5)cc32)c1 [Compound C25, (Z)-7-fluoro-3-((4-methyl-1H-pyrrol-2-yl)methylene)-5-(8-methyl-2,3-dihydro-1H-pyrido[2,3-b][1,4]oxazin-7-yl)indolin-2-one]
